Assays:
[1] = system: Human immunodeficiency virus 1; assay: Dissociation constant was measured against HIV-1 RNA construct J (present in HIV-1 RRE IIB RNA region); format: functional
[2] = system: Human immunodeficiency virus 1; assay: Dissociation constant was measured against HIV-1 RNA construct K (present in HIV-1 RRE IIB RNA region); format: functional
[3] = system: Human immunodeficiency virus 1; assay: Dissociation constant was measured against HIV-1 RNA construct I (present in HIV-1 RRE IIB RNA region); format: functional
[4] = system: Human immunodeficiency virus 1; assay: Dissociation constant was measured against HIV-1 RNA construct A (present in HIV-1 RRE IIB RNA region); format: functional
[5] = system: Human immunodeficiency virus 1; assay: Dissociation constant was measured against HIV-1 RNA construct D (present in HIV-1 RRE IIB RNA region); format: functional
[6] = system: Human immunodeficiency virus 1; assay: Dissociation constant was measured against HIV-1 RNA construct E (present in HIV-1 RRE IIB RNA region); N.B. = no measurable binding; format: functional
[7] = system: Human immunodeficiency virus 1; assay: Dissociation constant was measured against HIV-1 RNA construct H (present in HIV-1 RRE IIB RNA region); N.B. = no measurable binding; format: functional, organism-based
[8] = system: Human immunodeficiency virus 1; assay: Dissociation constant was measured against HIV-1 RNA construct B (present in HIV-1 RRE IIB RNA region); format: functional
[9] = system: Human immunodeficiency virus 1; assay: Dissociation constant was measured against HIV-1 RNA construct G (present in HIV-1 RRE IIB RNA region); N.B. = no measurable binding; format: functional, organism-based
[10] = system: Human immunodeficiency virus 1; assay: Dissociation constant was measured against HIV-1 RNA construct C (present in HIV-1 RRE IIB RNA region); format: functional
[11] = system: Human immunodeficiency virus 1; assay: Dissociation constant was measured against HIV-1 RNA construct F (present in HIV-1 RRE IIB RNA region); N.B. = no measurable binding; format: functional, organism-based

Compound	Kd [1]	Kd [2]	Kd [3]	Kd [4]	Kd [5]	Kd [6]	Kd [7]	Kd [8]	Kd [9]	Kd [10]	Kd [11]
Cc1ccc2ccc(NC(=O)CCNCCNCCC(=O)Nc3ccc4ccc(C)nc4n3)nc2n1	32.3 µM	34.9 µM	35.1 µM	–	–	–	–	–	–	–	–
Cc1ccc2ccc(NC(=O)CCN)nc2n1	–	–	–	1.4 µM	3.2 µM	No binding	No binding	2.4 µM	No binding	2.9 µM	No binding

— ChEMBL document CHEMBL1144309, “Specific recognition of napthyridine-based ligands toward guanine-containing bulges in RNA duplexes and RNA-DNA heteroduplexes” (Bioorg Med Chem Lett, 2005)
